Data reported in US10485800B2, “Mixed lineage kinase inhibitors for HIV/AIDS therapies” (UNIVERSITY OF ROCHESTER, priority 2012, dated 2019).
Structures can show the parent of a compound that is named as a salt. Where two headings read alike, the source gives them in different places.

Biological target: MLK3 (Homo sapiens (Human), UniProt Q16584)
Assay: Radiometric filter plate MLK3 assay
Format: biochemical
Conditions: read-out: MK3 IC50
Procedure: After a twenty minute incubation, the reactions were washed through filter plates and read on a scintillation counter. Results are shown in Table 9 below, in which +++ indicates ≤0.1 μM, ++ indicates >0.1 μM and ≤1 μM, and + indicates >1 μM.

[1] = 2 μM cold ATP (Km), 1 μM inactive MKK7b, twenty minute incubation

Chain of MLK3 (Q16584 whole entry): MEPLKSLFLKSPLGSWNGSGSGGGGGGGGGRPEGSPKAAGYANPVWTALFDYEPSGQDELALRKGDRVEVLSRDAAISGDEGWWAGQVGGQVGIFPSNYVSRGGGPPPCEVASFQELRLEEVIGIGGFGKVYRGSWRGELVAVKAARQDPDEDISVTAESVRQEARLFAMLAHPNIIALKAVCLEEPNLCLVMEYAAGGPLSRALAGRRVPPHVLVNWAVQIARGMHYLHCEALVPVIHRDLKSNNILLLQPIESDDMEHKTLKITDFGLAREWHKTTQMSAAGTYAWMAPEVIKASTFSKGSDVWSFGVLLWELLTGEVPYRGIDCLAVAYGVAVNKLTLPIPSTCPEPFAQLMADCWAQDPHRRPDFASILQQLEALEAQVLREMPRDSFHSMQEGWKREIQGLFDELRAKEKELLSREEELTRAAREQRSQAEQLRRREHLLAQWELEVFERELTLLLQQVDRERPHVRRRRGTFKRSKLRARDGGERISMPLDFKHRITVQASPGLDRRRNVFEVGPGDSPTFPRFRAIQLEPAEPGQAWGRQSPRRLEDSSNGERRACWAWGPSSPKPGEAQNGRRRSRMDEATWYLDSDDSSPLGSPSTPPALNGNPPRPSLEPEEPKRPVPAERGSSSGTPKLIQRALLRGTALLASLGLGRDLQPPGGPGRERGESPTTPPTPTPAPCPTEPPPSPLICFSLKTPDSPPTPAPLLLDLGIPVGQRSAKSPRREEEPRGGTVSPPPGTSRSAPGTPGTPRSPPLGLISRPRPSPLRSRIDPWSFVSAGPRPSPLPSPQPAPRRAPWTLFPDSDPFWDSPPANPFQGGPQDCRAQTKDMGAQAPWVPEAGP

| IC50 [1] [nM] | IC50 [nM] | SMILES |
| --- | --- | --- |
| < 100 | – | CNC(=O)c1ccc(-c2c[nH]c3ncc(-c4ccc(CN5CCN(C)CC5)cc4)cc23)cc1 [Example 165, N-methyl-4-{5-[4-(4-methyl-piperazin-1-ylmethyl)-phenyl]-1H-pyrrolo[2,3-b]pyridin-3-yl}-benzamide] |
| – | 100 to 1000 | c1cc2cc(-c3c[nH]c4ncc(-c5ccc(CN6CCNCC6)cc5)cc34)ccc2[nH]1 [Example 168, 3-(1H-indol-5-yl)-5-(4-(piperazin-1-ylmethyl)phenyl)-1H-pyrrolo[2,3-b]pyridine] |
| > 1000 | – | CN1CCN(Cc2ccc(-c3cnc4[nH]cc(-c5ccc(F)cc5)c4c3)cc2)CC1 [Example 169] |
| > 1000 | – | CN1CCN(Cc2ccc(-c3cnc4[nH]cc(-c5ccc(C(F)(F)F)cc5)c4c3)cc2)CC1 [Example 170] |
| – | 100 to 1000 | COc1ccc(-c2c[nH]c3ncc(-c4ccc(CN5CCN(C)CC5)cc4)cc23)cc1 [Example 171] |
| – | 100 to 1000 | Cc1cc2cc(-c3c[nH]c4ncc(-c5ccc(CN6CCN(C)CC6)cc5)cc34)ccc2[nH]1 [Example 172] |
| – | 100 to 1000 | CN1CCN(Cc2ccc(-c3cnc4[nH]cc(-c5ccc6[nH]ncc6c5)c4c3)cc2)CC1 [Example 173] |
| – | 100 to 1000 | CN1CCN(Cc2ccc(-c3cnc4[nH]cc(-c5ccc6c(c5)CC(=O)N6)c4c3)cc2)CC1 [Example 174] |
| – | 100 to 1000 | CN1CCN(Cc2ccc(-c3cnc4[nH]cc(-c5ccc6scnc6c5)c4c3)cc2)CC1 [Example 175] |
| – | 100 to 1000 | Cc1c[nH]c2ccc(-c3c[nH]c4ncc(-c5ccc(CN6CCN(C)CC6)cc5)cc34)cc12 [Example 176] |
| < 100 | – | CN1CCN(Cc2ccc(-c3cnc4[nH]cc(-c5ccc6nccc(O)c6c5)c4c3)cc2)CC1 [Example 177] |
| – | 100 to 1000 | CN1CCN(Cc2ccc(-c3cnc4[nH]cc(-c5ccc6c(O)ccnc6c5)c4c3)cc2)CC1 [Example 178] |
| < 100 | – | CN1CCN(Cc2ccc(-c3cnc4[nH]cc(-c5ccc6ncccc6c5)c4c3)cc2)CC1 [Example 180] |
| – | < 100 | [2H]c1cc2cc(-c3c[nH]c4ncc(-c5ccc(CN6CCN(C)CC6)cc5)cc34)ccc2[nH]1 [Example 181] |

More lines, now with the values behind:

| SMILES | IC50 [1] [nM] | IC50 [nM] |
| --- | --- | --- |
| COc1cc(-c2cnc3[nH]c(=S)n(CC4CC4)c3n2)cc(OC)c1OC [Example 127, 1-(cyclopropylmethyl)-6-(3,4,5-trimethoxyphenyl)-1H-imidazo[4,5-b]pyrazine-2(3H)-thione] | > 1000 | – |
| COc1cc(-c2cnc3c(c2)/C(=C\c2ccncc2)C(=O)N3)cc(OC)c1OC [Example 129, (E)- and (Z)-3-pyridin-4-ylmethylene-5-(3,4,5-trimethoxy-phenyl)-1,3-dihydro-pyrrolo[2,3-b]pyridin-2-one] | – | > 1000 |
| COc1cc(-c2cnc3c(c2)C(=Cc2ccccc2)C(=O)N3)cc(OC)c1OC [Example 130, 3-benzylidene-5-(3,4,5-trimethoxy-phenyl)-1,3-dihydro-pyrrolo[2,3-b]pyridin-2-one] | > 1000 | – |
| COc1cc(-c2cnc3c(c2)C(=Cc2cccc(C(N)=O)c2)C(=O)N3)cc(OC)c1OC [Example 132, 3-[2-oxo-5-(3,4,5-trimethoxy-phenyl)-1,2-dihydro-pyrrolo[2,3-b]pyridin-3-ylidenemethyl]-benzamide] | > 1000 | – |
| COc1cc(-c2cnc3c(c2)C(=Cc2ccc(C#N)cc2)C(=O)N3)cc(OC)c1OC [Example 133, 4-[2-oxo-5-(3,4,5-trimethoxy-phenyl)-1,2-dihydro-pyrrolo[2,3-b]pyridin-3-ylidenemethyl]-benzonitrile] | > 1000 | – |
| COc1cc(-c2cnc3c(c2)C(=Cc2cccc(C#N)c2)C(=O)N3)cc(OC)c1OC [Example 134, 3-[2-oxo-5-(3,4,5-trimethoxy-phenyl)-1,2-dihydro-pyrrolo[2,3-b]pyridin-3-ylidenemethyl]-benzonitrile] | > 1000 | – |
| COc1cc(-c2cnc3c(c2)C(Cc2cccnc2)C(=O)N3)cc(OC)c1OC (stereo not drawn) [Example 135, 3-pyridin-3-ylmethyl-5-(3,4,5-trimethoxy-phenyl)-1,3-dihydro-pyrrolo[2,3-b]pyridin-2-one] | > 1000 | – |
| COc1cc(-c2cnc3c(c2)C(Cc2ccncc2)C(=O)N3)cc(OC)c1OC (stereo not drawn) [Example 136, 3-pyridin-4-ylmethyl-5-(3,4,5-trimethoxy-phenyl)-1,3-dihydro-pyrrolo[2,3-b]pyridin-2-one] | > 1000 | – |
| COc1cc(-c2cnc3c(c2)C(Cc2ccccc2)C(=O)N3)cc(OC)c1OC (stereo not drawn) [Example 137, 3-benzyl-5-(3,4,5-trimethoxy-phenyl)-1,3-dihydro-pyrrolo[2,3-b]pyridin-2-one] | > 1000 | – |
| COc1cc(-c2cnc3c(c2)C(Cc2ccc(C(N)=O)cc2)C(=O)N3)cc(OC)c1OC (stereo not drawn) [Example 138, 4-[2-oxo-5-(3,4,5-trimethoxy-phenyl)-2,3-dihydro-1H-pyrrolo[2,3-b]pyridin-3-ylmethyl]-benzamide] | > 1000 | – |
| CC(=O)N1CCN(Cc2ccc(-c3cnc4[nH]cc(-c5ccc6[nH]ccc6c5)c4c3)cc2)CC1 [Example 140, 1-(4-{4-[3-(1H-indol-5-yl)-1H-pyrrolo[2,3-b]pyridin-5-yl]-benzyl}-piperazin-1-yl)-ethanone] | > 1000 | – |
| CN1CCN(Cc2ccc(-c3cnc4[nH]cc(-c5ccc6[nH]ccc6c5)c4c3)cc2)CC1=O [Example 141, 4-{4-[3-(1H-indol-5-yl)-1H-pyrrolo[2,3-b]pyridin-5-yl]-benzyl}-1-methyl-piperazin-2-one] | < 100 | – |
| O=C1CN(Cc2ccc(-c3cnc4[nH]cc(-c5ccc6[nH]ccc6c5)c4c3)cc2)CCN1 [Example 142, 4-{4-[3-(1H-indol-5-yl)-1H-pyrrolo[2,3-b]pyridin-5-yl]-benzyl}-piperazin-2-one] | < 100 | – |
| CN1CCN(Cc2cccc(-c3cnc4[nH]cc(-c5ccc6[nH]ccc6c5)c4c3)c2)CC1=O [Example 143, 4-{3-[3-(1H-indol-5-yl)-1H-pyrrolo[2,3-b]pyridin-5-yl]-benzyl}-1-methyl-piperazin-2-one] | < 100 | – |
| CC(C)(C)OC(=O)N1CCN(Cc2ccc(-c3cnc4[nH]cc(-c5ccc6[nH]ccc6c5)c4c3)cc2)CC1 [Example 144, 4-{4-[3-(1H-indol-5-yl)-1H-pyrrolo[2,3-b]pyridin-5-yl]-benzyl}-piperazine-1-carboxylic acid tert-butyl ester] | < 100 | – |
| CC(=O)N1CCN(C(=O)c2ccc(-c3cnc4[nH]cc(-c5ccc6[nH]ccc6c5)c4c3)cc2)CC1 [Example 146, 1-(4-{4-[3-(1H-indol-5-yl)-1H-pyrrolo[2,3-b]pyridin-5-yl]-benzoyl}-piperazin-1-yl)-ethanone] | < 100 | – |
| CN1CCN(C(=O)c2cccc(-c3cnc4[nH]cc(-c5ccc6[nH]ccc6c5)c4c3)c2)CC1 [Example 147, {3-[3-(1H-indol-5-yl)-1H-pyrrolo[2,3-b]pyridin-5-yl]-phenyl}-(4-methyl-piperazin-1-yl)-methanone] | – | < 100 |
| CC(C)(C)OC(=O)N1CCN(C(=O)c2ccc(-c3cnc4[nH]cc(-c5ccc(C(N)=O)cc5)c4c3)cc2)CC1 [Example 148, 4-{4-[3-(4-carbamoyl-phenyl)-1H-pyrrolo[2,3-b]pyridin-5-yl]-benzoyl}-piperazine-1-carboxylic acid tert-butyl ester] | < 100 | – |
| NC(=O)c1ccc(-c2c[nH]c3ncc(-c4ccc(C(=O)N5CCNCC5)cc4)cc23)cc1 [Example 149, 4-{5-[4-(piperazine-1-carbonyl)-phenyl]-1H-pyrrolo[2,3-b]pyridin-3-yl}-benzamide, hydrochloride salt] | < 100 | – |
| CC(C)(C)OC(=O)N1CCN(C(=O)c2cccc(-c3cnc4[nH]cc(-c5ccc(C(N)=O)cc5)c4c3)c2)CC1 [Example 151, 4-{3-[3-(4-carbamoyl-phenyl)-1H-pyrrolo[2,3-b]pyridin-5-yl]-benzoyl}-piperazine-1-carboxylic acid tert-butyl ester] | < 100 | – |
| COc1cc(-c2cc3c(-c4ccc(C(N)=O)cc4)c[nH]c3[n+]([O-])c2)cc(OC)c1OC [Example 154, 4-[7-oxy-5-(3,4,5-trimethoxy-phenyl)-1H-pyrrolo[2,3-b]pyridin-3-yl]-benzamide] | 100 to 1000 | – |
| CN1CCN(Cc2cccc(-c3cnc4[nH]cc(-c5ccc(C(N)=O)cc5)c4c3)c2)CC1 [Example 156, 4-{5-[3-(4-methyl-piperazin-1-ylmethyl)-phenyl]-1H-pyrrolo[2,3-b]pyridin-3-yl}-benzamide] | < 100 | – |
| CC(=O)N1CCN(Cc2ccc(-c3cnc4[nH]cc(-c5ccc(C(N)=O)cc5)c4c3)cc2)CC1 [Example 157, 4-{5-[4-(4-acetyl-piperazin-1-ylmethyl)-phenyl]-1H-pyrrolo[2,3-b]pyridin-3-yl}-benzamide] | < 100 | – |
| CN1CCN(Cc2ccc(-c3cnc4[nH]cc(-c5ccc(C(N)=O)cc5)c4c3)cc2)CC1=O [Example 158, 4-{5-[4-(4-methyl-3-oxo-piperazin-1-ylmethyl)-phenyl]-1H-pyrrolo[2,3-b]pyridin-3-yl}-benzamide] | < 100 | – |
| COc1cc(-c2cnc3[nH]cc(-c4ccc(CNC(C)=O)cc4)c3c2)cc(OC)c1OC [Example 159, N-{4-[5-(3,4,5-Trimethoxy-phenyl)-1H-pyrrolo[2,3-b]pyridin-3-yl]-benzyl}-acetamide] | < 100 | – |
| CN1CCN(Cc2ccc(-c3c[nH]c4ncc(-c5ccc(C(N)=O)cc5)cc34)cc2)CC1 [Example 162, 4-{3-[4-(4-methyl-piperazin-1-ylmethyl)-phenyl]-1H-pyrrolo[2,3-b]pyridin-5-yl}-benzamide] | < 100 | – |
| CN1CCN(Cc2ccc(-c3c[nH]c4ncc(-c5ccc6[nH]ccc6c5)cc34)cc2)CC1 [Example 163, 5-(1H-indol-5-yl)-3-[4-(4-methyl-piperazin-1-ylmethyl)-phenyl]-1H-pyrrolo[2,3-b]pyridine] | > 1000 | – |
| CNC(=O)c1ccc(-c2c[nH]c3ncc(-c4cc(OC)c(OC)c(OC)c4)cc23)cc1 [Example 164, N-methyl-4-[5-(3,4,5-trimethoxy-phenyl)-1H-pyrrolo[2,3-b]pyridin-3-yl]-benzamide] | – | > 1000 |
